Measurements: paper PMC4177392, “Modulation of Cytochrome P450 Metabolism and Transport across Intestinal Epithelial Barrier by Ginger Biophenolics” (PLoS ONE, 2014)
In brackets after ≈: the same amount, converted by molar mass.

Legend:
CYP2A6 = target: T1, CYP2A6 (Homo sapiens, UniProt P11509); test: CYP2A6 inhibition in human liver microsomes (substrate coumarin); format: in vitro ADME
T1 sequence (P11509 1-494): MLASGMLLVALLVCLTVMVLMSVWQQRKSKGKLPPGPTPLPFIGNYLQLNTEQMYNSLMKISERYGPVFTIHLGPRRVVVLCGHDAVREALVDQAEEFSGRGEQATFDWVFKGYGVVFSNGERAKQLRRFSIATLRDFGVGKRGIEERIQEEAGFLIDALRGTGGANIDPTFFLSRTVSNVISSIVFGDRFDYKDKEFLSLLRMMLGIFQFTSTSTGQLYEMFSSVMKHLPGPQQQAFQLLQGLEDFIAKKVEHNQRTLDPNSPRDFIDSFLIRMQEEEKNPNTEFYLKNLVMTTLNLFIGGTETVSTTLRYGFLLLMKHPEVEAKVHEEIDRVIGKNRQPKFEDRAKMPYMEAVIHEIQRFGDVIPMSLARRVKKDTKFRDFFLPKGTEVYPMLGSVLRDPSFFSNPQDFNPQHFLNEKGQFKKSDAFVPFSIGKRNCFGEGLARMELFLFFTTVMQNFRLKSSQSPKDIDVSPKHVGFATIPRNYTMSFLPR
Protocol: (§5) The highest concentration of GE used in the assay was 500 µg/mL equivalent. Stock solution for each CYP specific probe substrate was prepared in such a way that the final concentration is below the reported Km value.
(§6) A microsome-buffer-substrate mixture (MBS mix) was prepared for each isozyme by pre-mixing appropriate volumes of sodium phosphate buffer (pH 7.4, 50 mM), microsomes and substrate (Table S2 in File S1). 179 µL of MBS mix was transferred to 96-well reaction plate to which 1 µL of inhibitor stock solution was added to achieve the final target inhibitor concentration. The reaction plate was pre-incubated for 10 min at 37°C followed by reaction initiation by addition of 20 µL of 10 mM NADPH solution. The reaction plate was then incubated at 37°C for a predetermined time period following which it was quenched with 200 µL ACN for all CYPs and 200 µL 1% formic acid in water∶ACN (70∶30) for CYP1A2. In all cases, the final incubations after addition of substrate and inhibitor contained 0.1% DMSO (v/v), and the total organic solvent (DMSO and ACN) content was less than or equal to 1% (v/v). […] The incubations were performed in singlet for individual gingerols and in duplicate for GE along with respective positive controls.

CYP2E1 = CYP2E1 (Homo sapiens, UniProt P05181); test: CYP2E1 inhibition in human liver microsomes (substrate chlorzoxazone); conditions: for IC50 CYP2E1: human liver microsomes, substrate chlorzoxazone, positive control
Protocol: (§1) Stock solution for each CYP specific probe substrate was prepared in such a way that the final concentration is below the reported Km value.
(§2) A microsome-buffer-substrate mixture (MBS mix) was prepared for each isozyme by pre-mixing appropriate volumes of sodium phosphate buffer (pH 7.4, 50 mM), microsomes and substrate (Table S2 in File S1). 179 µL of MBS mix was transferred to 96-well reaction plate to which 1 µL of inhibitor stock solution was added to achieve the final target inhibitor concentration. The reaction plate was pre-incubated for 10 min at 37°C followed by reaction initiation by addition of 20 µL of 10 mM NADPH solution. The reaction plate was then incubated at 37°C for a predetermined time period following which it was quenched with 200 µL ACN for all CYPs and 200 µL 1% formic acid in water∶ACN (70∶30) for CYP1A2. In all cases, the final incubations after addition of substrate and inhibitor contained 0.1% DMSO (v/v), and the total organic solvent (DMSO and ACN) content was less than or equal to 1% (v/v). The details of final substrate concentration, incubation time, microsomal protein concentration in the reaction mixtures and the metabolites monitored for each isozyme tested are presented in Table S3 in File S1.
(§3) All samples were processed using protein precipitation method and analyzed by employing positive (for all CYPs) and negative (for CYP2A6, 2C19 and 2E1) ionization mode in liquid chromatography tandem mass spectrometry (API4000, Applied Biosystems, USA). The peak area ratio of analyte to IS was used for calculations. An isocratic method comprising 5 mM ammonium formate and ACN (40∶60) with 0.05% formic acid was used for elution. For CYP2C19, a mobile phase consisting of 5 mM ammonium formate and ACN (30∶70) was used. The analytes and internal standards were retained on BDS Hypersil Phenyl (150×4.6 mm, 5 µ, Thermo, USA) column. A flow rate of 0.5 mL/min (CYP1A2), 0.6 mL/min (CYP2C19, CYP2E1), 0.7 mL/min (CYP2C9), 0.8 mL/min (CYP2A6, CYP3A), 1.0 mL/min (CYP2B6, CYP2C8, CYP2D6) was maintained using Shimadzu Prominence solvent delivery system (LC-20AD). The mobile phase was degassed using degasser (DGU-20A3), samples were loaded into autosampler (SIL-HTc) and the column temperature was maintained at 40°C by column oven (CTO-20A). Injection volumes for the samples were as follows: 5 µL (CYP1A2, CYP2D6, and CYP3A), 10 µL (CYP2B6, CYP2C8, and CYP2E1) and 20 µL (CYP2A6, CYP2C9, and CYP2C19). Data was collected and processed using Sciex Analyst 1.4.2. All the structures of inhibitors, substrates, metabolites and internal standards for each CYP enzyme are represented in Table S6 in File S1.
The IC50 value was estimated from the percentage reduction in CYP activity at eleven inhibitor concentrations with respect to control.
(§4) The data was analysed using 4PL (parameter logistic model), 3PLFB (bottom fixed), 3PLFT (top fixed), 2PL (top and bottom fixed), and the relative IC50 was with lowest standard error was further manipulation. Absolute IC50 was calculated from this relative IC50 by using the equation below: [drawing 3]

CYP3A4 [1] = target: T2, CYP3A4 (Homo sapiens, UniProt P08684); test: CYP3A4 inhibition in human liver microsomes (substrate midazolam); format: in vitro ADME
Protocol: as §5
(§7) A microsome-buffer-substrate mixture (MBS mix) was prepared for each isozyme by pre-mixing appropriate volumes of sodium phosphate buffer (pH 7.4, 50 mM), microsomes and substrate (Table S2 in File S1). 179 µL of MBS mix was transferred to 96-well reaction plate to which 1 µL of inhibitor stock solution was added to achieve the final target inhibitor concentration. The reaction plate was pre-incubated for 10 min at 37°C followed by reaction initiation by addition of 20 µL of 10 mM NADPH solution. The reaction plate was then incubated at 37°C for a predetermined time period following which it was quenched with 200 µL ACN for all CYPs and 200 µL 1% formic acid in water∶ACN (70∶30) for CYP1A2. In all cases, the final incubations after addition of substrate and inhibitor contained 0.1% DMSO (v/v), and the total organic solvent (DMSO and ACN) content was less than or equal to 1% (v/v). The details of final substrate concentration, incubation time, microsomal protein concentration in the reaction mixtures and the metabolites monitored for each isozyme tested are presented in Table S3 in File S1. The incubations were performed in singlet for individual gingerols and in duplicate for GE along with respective positive controls.
(§8) All samples were processed using protein precipitation method and analyzed by employing positive (for all CYPs) and negative (for CYP2A6, 2C19 and 2E1) ionization mode in liquid chromatography tandem mass spectrometry (API4000, Applied Biosystems, USA). The peak area ratio of analyte to IS was used for calculations. An isocratic method comprising 5 mM ammonium formate and ACN (40∶60) with 0.05% formic acid was used for elution. For CYP2C19, a mobile phase consisting of 5 mM ammonium formate and ACN (30∶70) was used. The analytes and internal standards were retained on BDS Hypersil Phenyl (150×4.6 mm, 5 µ, Thermo, USA) column. A flow rate of 0.5 mL/min (CYP1A2), 0.6 mL/min (CYP2C19, CYP2E1), 0.7 mL/min (CYP2C9), 0.8 mL/min (CYP2A6, CYP3A), 1.0 mL/min (CYP2B6, CYP2C8, CYP2D6) was maintained using Shimadzu Prominence solvent delivery system (LC-20AD). The mobile phase was degassed using degasser (DGU-20A3), samples were loaded into autosampler (SIL-HTc) and the column temperature was maintained at 40°C by column oven (CTO-20A). […]

CYP3A4 [2] = target: T2, CYP3A4; test: CYP3A4 inhibition in human liver microsomes (substrate testosterone); format: in vitro ADME
Protocol: as §5, §6

CYP1A2 = target: T3, CYP1A2 (Homo sapiens, UniProt P05177); test: CYP1A2 inhibition in human liver microsomes (substrate phenacetin); format: in vitro ADME
T3 construct: […]; tissue XenoTechLLC H0610
T3 sequence (P05177 1-516): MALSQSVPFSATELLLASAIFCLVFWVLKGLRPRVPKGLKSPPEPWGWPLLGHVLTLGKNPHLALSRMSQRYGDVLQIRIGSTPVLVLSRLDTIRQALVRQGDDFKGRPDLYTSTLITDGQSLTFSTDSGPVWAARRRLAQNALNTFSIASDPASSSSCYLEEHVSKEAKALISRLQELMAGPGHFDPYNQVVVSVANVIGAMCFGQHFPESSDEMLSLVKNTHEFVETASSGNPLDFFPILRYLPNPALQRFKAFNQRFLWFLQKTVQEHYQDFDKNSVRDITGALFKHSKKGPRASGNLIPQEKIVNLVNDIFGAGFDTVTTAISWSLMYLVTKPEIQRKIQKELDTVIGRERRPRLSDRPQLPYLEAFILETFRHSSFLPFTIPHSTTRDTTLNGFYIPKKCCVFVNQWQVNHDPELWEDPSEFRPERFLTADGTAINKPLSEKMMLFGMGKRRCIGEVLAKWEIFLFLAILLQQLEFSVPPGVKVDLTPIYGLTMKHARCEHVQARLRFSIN
Protocol: as §5, §6

Caco-2 monolayer = test: Caco-2 permeability assay; conditions: 10 µM
Protocol: (§9) Caco-2 cells were seeded on tissue culture inserts at a density of 80,000 cells/insert. The cells were maintained for 21 days in culture medium to enable differentiation and formation of the monolayer. The culture medium was changed every alternate day.
(§10) Stock solutions (1 mM) of individual gingerols were prepared in DMSO, which were then spiked into the buffer to obtain a final assay concentration of 10 µM. HBSS-HEPES buffer was prepared by dissolving 9.7 g Hank's balanced salts, 0.37 g sodium bicarbonate, 3.50 g glucose and 2.38 g HEPES in Milli-Q water (1 L). The pH of the buffer was adjusted to 7.4 using either 1N hydrochloric acid or 1N sodium hydroxide.
(§11) Permeability of gingerols (10 µM) was determined in apical to basolateral (A-B) and basolateral to apical (B-A) directions. Transport studies were conducted between 21–25 days post seeding in 12-well Transwell inserts. Following pre-incubation in HBSS-HEPES buffer at 37°C, 5% CO2 for 30 min, buffer was removed and gingerols spiked buffer was added to each donor compartment (triplicate wells). Blank HBSS-HEPES buffer containing 1% DMSO was added to the receiver compartment. Samples were withdrawn from the receiver chamber at 30, 60, 90, and 120 min, and from the donor chamber at 0 and 120 min. The samples were collected in tubes containing equal volume of ACN. The withdrawn volume was replaced with buffer containing 1% DMSO. At the end of the experiment, cells were washed with ice-cold buffer and lysed with ACN to assess cell accumulation and estimate the recovery. Monolayers with transepithelial electrical resistance (TEER) above 300 Ωcm^2 were considered for the assay and after the assay TEER values were above 300 Ωcm^2 confirming the monolayer integrity during the experiment.
(§12) Samples were processed using protein precipitation method and analyzed using LC/MS/MS. A calibration curve (CC) of 5 nM to 10,000 nM range was employed to quantify the samples. […] Separation was achieved using Zorbax C18 column (50×4.6 mm, 3.5 µ, Agilent) for 8G, 10G, 6S and using Hypurity C18 column (100×4.6 mm, 5 µ, Thermo) for 6G. An injection volume of 20 µL was used for all samples and a flow rate of 0.6 mL/min (6G) and 1 mL/min (8G, 10G and 6S) was used for elution.
(§13) Cumulative amount of gingerols transported at each time point was plotted as function of time. The slope was used to calculate the rate of appearance of gingerols (dQ/dt).
(§14) Apparent permeability (Papp) was calculated using the formula [drawing 4] dQ/dt – rate of transport to receiver side

[3] = Caco-2 permeability assay; conditions: human; for recovery at 120 min, 10 µM: Caco-2, pH 7.4, Mass Balance (recovery); for Papp at 120 min, 10 µM: Caco-2, pH 7.4, Papp, n = 3, mean ± SD
Protocol: as §9, §10, §11, §12, §13, §14

CYP2C8 = target: T4, CYP2C8 (Homo sapiens, UniProt P10632); test: CYP2C8 inhibition in human liver microsomes (substrate amodiaquine); format: in vitro ADME; conditions: IC50 CYP2C8, human liver microsomes; substrate amodiaquine; gingerols and GE
T4 sequence (P10632 1-490): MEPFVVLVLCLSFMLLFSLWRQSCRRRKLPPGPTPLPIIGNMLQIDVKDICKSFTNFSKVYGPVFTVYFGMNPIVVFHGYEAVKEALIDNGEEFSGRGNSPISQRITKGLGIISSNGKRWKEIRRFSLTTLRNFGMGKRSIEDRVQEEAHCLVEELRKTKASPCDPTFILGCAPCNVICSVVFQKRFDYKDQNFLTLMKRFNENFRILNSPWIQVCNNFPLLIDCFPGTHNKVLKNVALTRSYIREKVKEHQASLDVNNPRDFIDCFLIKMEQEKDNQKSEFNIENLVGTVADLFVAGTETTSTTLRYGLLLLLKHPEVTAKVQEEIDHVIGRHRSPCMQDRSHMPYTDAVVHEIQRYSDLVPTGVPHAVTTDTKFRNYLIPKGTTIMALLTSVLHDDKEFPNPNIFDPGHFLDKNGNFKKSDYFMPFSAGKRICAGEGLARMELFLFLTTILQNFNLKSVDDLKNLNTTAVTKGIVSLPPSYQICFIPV
Protocol: as §5, §6

CYP2D6 = CYP2D6 (Homo sapiens, UniProt P10635); test: CYP2D6 inhibition in human liver microsomes (substrate dextromethorphan); format: in vitro ADME; conditions: IC50 CYP2D6, human liver microsomes; substrate dextromethorphan; gingerols and GE
Protocol: as §5, §7, §8

CYP2C19 = CYP2C19 (Homo sapiens, UniProt P33261); test: CYP2C19 inhibition in human liver microsomes (substrate (S)-mephenytoin); format: in vitro ADME
Protocol: as §5, §7, §8

CYP2C9 = CYP2C9 (Homo sapiens, UniProt P11712); test: CYP2C9 inhibition in human liver microsomes (substrate diclofenac)
Protocol: as §1, §2
as §3, with “All the structures of inhibitors, substrates, metabolites and internal standards for each CYP enzyme are represented in Table S6 in File S1.” left out
as §4

CYP2B6 = target: T5, CYP2B6 (Homo sapiens, UniProt P20813); test: CYP2B6 inhibition in human liver microsomes (substrate bupropion); format: in vitro ADME
T5 sequence (P20813 1-491): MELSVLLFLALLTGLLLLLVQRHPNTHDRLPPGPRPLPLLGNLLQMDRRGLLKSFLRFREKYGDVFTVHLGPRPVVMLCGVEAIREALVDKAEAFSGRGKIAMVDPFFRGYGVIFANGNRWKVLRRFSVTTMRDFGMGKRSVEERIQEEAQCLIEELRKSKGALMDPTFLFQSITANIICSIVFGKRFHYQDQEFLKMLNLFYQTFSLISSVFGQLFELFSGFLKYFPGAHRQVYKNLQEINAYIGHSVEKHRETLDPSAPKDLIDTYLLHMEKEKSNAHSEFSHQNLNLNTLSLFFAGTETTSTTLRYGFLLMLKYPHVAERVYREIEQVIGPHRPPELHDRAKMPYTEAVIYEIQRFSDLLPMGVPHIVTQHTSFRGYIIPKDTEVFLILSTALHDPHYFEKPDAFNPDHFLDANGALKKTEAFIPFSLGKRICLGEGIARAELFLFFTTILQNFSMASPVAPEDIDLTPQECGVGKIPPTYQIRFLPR
Protocol: as §5, §6

[4] = human, in vivo, po; cited from earlier work

Chain of CYP2E1 (P05181 whole entry): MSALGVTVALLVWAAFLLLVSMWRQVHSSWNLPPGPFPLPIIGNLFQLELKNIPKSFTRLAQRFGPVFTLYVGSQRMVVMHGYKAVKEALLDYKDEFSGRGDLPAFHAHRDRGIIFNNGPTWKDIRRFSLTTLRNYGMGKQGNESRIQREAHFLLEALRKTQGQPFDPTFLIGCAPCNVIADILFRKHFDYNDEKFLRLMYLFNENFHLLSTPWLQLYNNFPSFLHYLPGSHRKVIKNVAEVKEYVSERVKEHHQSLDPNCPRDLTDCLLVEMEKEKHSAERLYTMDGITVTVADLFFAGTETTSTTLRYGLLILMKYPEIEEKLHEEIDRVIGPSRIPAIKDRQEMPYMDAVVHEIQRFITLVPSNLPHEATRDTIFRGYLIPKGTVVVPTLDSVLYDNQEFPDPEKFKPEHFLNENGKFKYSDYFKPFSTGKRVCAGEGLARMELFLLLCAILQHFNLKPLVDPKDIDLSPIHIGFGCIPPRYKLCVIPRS
T2 sequence (P08684 2-503): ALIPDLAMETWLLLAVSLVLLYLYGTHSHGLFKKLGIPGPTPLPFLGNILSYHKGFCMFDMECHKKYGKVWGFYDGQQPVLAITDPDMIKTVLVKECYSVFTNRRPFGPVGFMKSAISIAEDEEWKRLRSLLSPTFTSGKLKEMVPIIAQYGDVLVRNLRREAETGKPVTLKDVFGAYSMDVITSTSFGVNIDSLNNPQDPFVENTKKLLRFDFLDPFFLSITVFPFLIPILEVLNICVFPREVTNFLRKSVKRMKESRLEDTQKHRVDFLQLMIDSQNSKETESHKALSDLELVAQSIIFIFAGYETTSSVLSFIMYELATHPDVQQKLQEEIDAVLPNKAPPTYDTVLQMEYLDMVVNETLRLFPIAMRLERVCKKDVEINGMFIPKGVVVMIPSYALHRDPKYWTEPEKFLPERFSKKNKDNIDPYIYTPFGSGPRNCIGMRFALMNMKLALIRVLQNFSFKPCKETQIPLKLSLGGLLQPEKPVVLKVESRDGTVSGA
Chain of CYP2C19 (P33261 whole entry): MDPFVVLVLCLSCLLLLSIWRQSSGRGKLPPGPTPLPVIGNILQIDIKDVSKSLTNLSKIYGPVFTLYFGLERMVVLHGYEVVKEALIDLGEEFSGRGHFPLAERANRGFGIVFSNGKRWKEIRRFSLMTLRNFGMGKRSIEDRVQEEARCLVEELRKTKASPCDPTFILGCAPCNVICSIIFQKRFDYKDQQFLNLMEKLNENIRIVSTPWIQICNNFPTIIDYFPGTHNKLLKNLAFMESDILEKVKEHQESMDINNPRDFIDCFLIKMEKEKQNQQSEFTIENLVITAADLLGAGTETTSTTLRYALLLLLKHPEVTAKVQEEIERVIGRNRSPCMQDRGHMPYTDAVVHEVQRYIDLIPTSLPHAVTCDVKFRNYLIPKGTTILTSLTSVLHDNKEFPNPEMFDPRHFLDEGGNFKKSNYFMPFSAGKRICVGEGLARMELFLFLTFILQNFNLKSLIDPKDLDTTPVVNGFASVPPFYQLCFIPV
Chain of CYP2D6 (P10635 whole entry): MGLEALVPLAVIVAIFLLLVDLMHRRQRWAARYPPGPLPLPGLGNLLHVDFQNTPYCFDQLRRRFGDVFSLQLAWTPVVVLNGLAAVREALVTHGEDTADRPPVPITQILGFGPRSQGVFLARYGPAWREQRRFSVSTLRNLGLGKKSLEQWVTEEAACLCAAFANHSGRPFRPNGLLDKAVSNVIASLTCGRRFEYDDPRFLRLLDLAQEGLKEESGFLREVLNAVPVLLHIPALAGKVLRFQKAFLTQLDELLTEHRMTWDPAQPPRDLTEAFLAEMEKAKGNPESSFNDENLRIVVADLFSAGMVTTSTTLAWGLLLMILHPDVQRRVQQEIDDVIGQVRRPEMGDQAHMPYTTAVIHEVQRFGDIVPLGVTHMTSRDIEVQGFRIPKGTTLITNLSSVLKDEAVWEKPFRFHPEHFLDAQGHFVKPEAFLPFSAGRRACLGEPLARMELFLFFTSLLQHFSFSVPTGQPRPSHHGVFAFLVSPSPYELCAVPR
Chain of CYP2C9 (P11712 whole entry): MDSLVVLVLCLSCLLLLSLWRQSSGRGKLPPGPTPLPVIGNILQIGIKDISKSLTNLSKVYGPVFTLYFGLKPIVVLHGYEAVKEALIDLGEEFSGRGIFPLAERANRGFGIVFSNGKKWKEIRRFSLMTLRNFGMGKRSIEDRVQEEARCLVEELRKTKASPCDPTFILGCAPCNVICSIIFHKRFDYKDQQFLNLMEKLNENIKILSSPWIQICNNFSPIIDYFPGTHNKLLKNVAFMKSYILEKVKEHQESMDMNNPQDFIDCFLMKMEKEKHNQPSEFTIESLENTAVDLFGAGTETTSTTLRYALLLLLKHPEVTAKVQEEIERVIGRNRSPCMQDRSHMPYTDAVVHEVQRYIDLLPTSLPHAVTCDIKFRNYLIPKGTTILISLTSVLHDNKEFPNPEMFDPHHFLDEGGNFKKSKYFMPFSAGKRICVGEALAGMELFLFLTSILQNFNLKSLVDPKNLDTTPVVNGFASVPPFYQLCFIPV

For `N[C@@H]1C[C@H]1c1ccccc1` (racemic) [Tranylcypromine, reference compound], the “IC50 CYP2A6” value (CYP2A6; human liver microsomes, substrate coumarin, positive control) was 0.0084 µg/mL (≈ 0.0631 µM), the “CYP2A6 inhibition, fold more effective than the test compounds” value (CYP2A6; positive control vs test compounds) was ~4000 fold and the “IC50 CYP2E1” value (CYP2E1) was 0.5793 µg/mL (≈ 4.35 µM). For the same compound, the “IC50 CYP2E1” value (CYP2E1; listed as tranylcypromine) was 0.579 µg/mL (≈ 4.35 µM).

With `CCCCC[C@H](O)CC(=O)CCc1ccc(O)c(OC)c1` [6G, 6-gingerol] the IC50 (CYP3A4 [1]) was > 98.5 µM, the IC50 (CYP3A4 [2]) was 37.4 µM and the IC50 (CYP1A2) was 19 µM. For the same compound, the “Intracellular (cell) accumulation” value (Caco-2 monolayer; direction not given) was < 5%, the Intracellular accumulation (Caco-2 monolayer; A→B) was 2% and the Intracellular accumulation (Caco-2 monolayer; B→A) was 5%. For the same compound, the efflux ratio at 120 min, 10 µM ([3]; Caco-2, pH 7.4, Efflux Ratio) was < 2, the recovery at 120 min, 10 µM ([3]; A→B) was < 50% and the recovery at 120 min, 10 µM ([3]; B→A) was 77%. The Papp at 120 min, 10 µM ([3]; A→B) was > 10 ×10⁻⁶ cm/s, the Papp at 120 min, 10 µM ([3]; B→A) was > 10 ×10⁻⁶ cm/s and the IC50 (CYP2A6) was > 98.5 µM. For the same compound, the IC50 (CYP2E1) was > 98.5 µM, the IC50 (CYP2C8) was 22.1 µM and the IC50 (CYP2D6) was > 98.5 µM. For the same compound, the IC50 (CYP2C19) was 10.9 µM, the IC50 (CYP2C9) was 27.9 µM and the IC50 (CYP2B6) was 51 µM. The “Cmax / circulating concentration in humans” value [4] was 850 ± 430 ng/mL.
